{"source": "patent US20180180626A1", "about": "“A METHOD FOR DEVELOPMENT OF RECOMBINANT PROTEINS WITH FINGERPRINT LIKE SIMILARITY TO THE REFERENCE PRODUCT” (STC Biologics, Inc., priority 2014, published 2018)", "key": {"fucosyl transferase": {"tested_on": "fucosyl transferase", "assay": "2AB glycan analysis of trastuzumab biosimilar isolated from CHO cells treated with 2F-Peracetyl-Fucose (FTI)", "assay_type": "cell-based, Chinese Hamster", "procedure": "Chromatography by HPLC or UPLC is another powerful method to analyze recombinant proteins. For example, glycan species can he quantitated using a fluorescent 2AB labeling method. In this method, glycans are first removed from the protein by digestion with N-glycanase and then a fluorescent label is added to each glycan. The glycans can then be resolved using HILIC based chromatography and quantitated by measuring relative area under the curve. For oxidation quantitation an HIC based method can be used.\nTo obtain a recipe for production of a biosimilar with a similar glycosylation pattern to the original Herceptin®, CHO cells engineered to express the recombinant protein with an amino acid sequence identical to trastuzumab were first grown in the growth media without any inhibitors to establish a baseline. The glycan Species were analyzed using 2AB glycan method. It was observed that Peak 2 (G0) and Peak 6 (G1), and Peak 7 (mannose-5 and G1′) modifications were lower for the biosimilar than their target profile.\nG0, G1 and G1′ modifications are non-fucosylated modifications and are controlled by a host protein called fucosyl transferase and the mannose-5 modification is controlled by the host protein known as α-mannosidase 1. Fucosyl transferase can be inhibited by a variety of fucosyltransferase inhibitors shown in FIG. 2, α-mannosidase 1 can be inhibited by kifunensine.\nBriefly to obtain trastuzumab with modifications in the target range, cells were placed in growth media and treated with 2F-Peracetyl-Fucose (FTI) on day 7 at different concentrations (20 μM. 10 μM, 5 μM, 1 μM, 0.1 μM) to identify optimal drug concentration. On day 12 cells were harvested and the trastuzumab biosimilar isolated. […] FTI concentrations used to reach target profile are cell specific so it is expected that different concentrations of the FTI or other modulators would be required when a starting cell line is different from the one described in this example.\nDifferent treatment methods such as Method 2 can be used to obtain target profile. For example, FTI can be added on a daily basis starting on day 5 (Table 3, Method 2) rather than on Day 7."}, "α-mannosidase I": {"tested_on": "α-mannosidase I", "assay": "2AB glycan analysis of trastuzumab biosimilar isolated from CHO cells treated with kifunensine (KFI), with FTI", "assay_type": "cell-based, Chinese Hamster", "settings": "treated on Day 7; tested about 0.001 ng/ml-100 ng/ml", "procedure": "Chromatography by HPLC or UPLC is another powerful method to analyze recombinant proteins. For example, glycan species can he quantitated using a fluorescent 2AB labeling method. In this method, glycans are first removed from the protein by digestion with N-glycanase and then a fluorescent label is added to each glycan. The glycans can then be resolved using HILIC based chromatography and quantitated by measuring relative area under the curve. For oxidation quantitation an HIC based method can be used. To obtain a recipe for production of a biosimilar with a similar glycosylation pattern to the original Herceptin®, CHO cells engineered to express the recombinant protein with an amino acid sequence identical to trastuzumab were first grown in the growth media without any inhibitors to establish a baseline. The glycan Species were analyzed using 2AB glycan method. It was observed that Peak 2 (G0) and Peak 6 (G1), and Peak 7 (mannose-5 and G1′) modifications were lower for the biosimilar than their target profile. G0, G1 and G1′ modifications are non-fucosylated modifications and are controlled by a host protein called fucosyl transferase and the mannose-5 modification is controlled by the host protein known as α-mannosidase 1. Fucosyl transferase can be inhibited by a variety of fucosyltransferase inhibitors shown in FIG. 2, α-mannosidase 1 can be inhibited by kifunensine. […]"}, "[1]": {"settings": "Method 2 - […]-[…] FTI every day starting at day 5"}}}
{"compound": "CC(=O)OC1O[C@@H](C)[C@@H](OC(C)=O)[C@@H](OC(C)=O)[C@@H]1F", "note": "(some centres unmarked) [FTI, 2F-Peracetyl-Fucose]", "values": [{"measurement": "G0, G1 and G1′ levels versus target PTM range", "setting": "fucosyl transferase; 10 μM FTI on day 7, harvest day 12", "value": "matched the target PTM range"}, {"measurement": "G0, G1 and G1′ levels versus target PTM range", "setting": "fucosyl transferase; 20 μM FTI on day 7, harvest day 12", "value": "increase of G0, G1 and G1′ PTMs above that of target PTMs"}, {"measurement": "modifications versus target range", "setting": "fucosyl transferase; FTI at concentrations lower than 8 μM", "value": "outside the target range"}, {"measurement": "Glycan Species Peak 2-G0", "setting": "fucosyl transferase; Method 1 - 10 μM FTI - Day 7", "value": 4, "unit": "%"}, {"measurement": "Glycan Species Peak 3", "setting": "fucosyl transferase; Method 1 - 10 μM FTI - Day 7", "value": 1.5, "unit": "%"}, {"measurement": "Glycan Species Peak 4-G0F", "setting": "fucosyl transferase; Method 1 - 10 μM FTI - Day 7", "value": 44, "unit": "%"}, {"measurement": "Glycan Species Peak 5", "setting": "fucosyl transferase; Method 1 - 10 μM FTI - Day 7", "value": 0.8, "unit": "%"}, {"measurement": "Glycan Species Peak 6-G1", "setting": "fucosyl transferase; Method 1 - 10 μM FTI - Day 7", "value": 1.8, "unit": "%"}, {"measurement": "Glycan Species Peak 7- G1F/mannose 5", "setting": "fucosyl transferase; Method 1 - 10 μM FTI - Day 7", "value": 1.2, "unit": "%"}, {"measurement": "Glycan Species Peak 8- (1,6)G1F", "setting": "fucosyl transferase; Method 1 - 10 μM FTI - Day 7", "value": 26, "unit": "%"}, {"measurement": "Glycan Species Peak 9 (1,3)G1F", "setting": "fucosyl transferase; Method 1 - 10 μM FTI - Day 7", "value": 11, "unit": "%"}, {"measurement": "Glycan Species Peak 10 G2F", "setting": "fucosyl transferase; Method 1 - 10 μM FTI - Day 7", "value": 6.5, "unit": "%"}, {"measurement": "Glycan Species Peak 11", "setting": "fucosyl transferase; Method 1 - 10 μM FTI - Day 7", "value": 0.2, "unit": "%"}, {"measurement": "Glycan Species Peak 12", "setting": "fucosyl transferase; Method 1 - 10 μM FTI - Day 7", "value": 0.25, "unit": "%"}, {"measurement": "Glycan Species Peak 13", "setting": "fucosyl transferase; Method 1 - 10 μM FTI - Day 7", "value": 0.2, "unit": "%"}, {"measurement": "Glycan Species Peak 14", "setting": "fucosyl transferase; Method 1 - 10 μM FTI - Day 7", "value": 0.2, "unit": "%"}, {"measurement": "Glycan Species Peak 15", "setting": "fucosyl transferase; Method 1 - 10 μM FTI - Day 7", "value": 0.2, "unit": "%"}, {"measurement": "Glycan Species Peak 1", "setting": "fucosyl transferase; Method 1 - 10 μM FTI - Day 7, trastuzumab biosimilar, harvest day 12", "value": 1.5, "unit": "%"}, {"measurement": "Glycan Species Peak 4-G0F", "setting": "fucosyl transferase; [1]", "value": 44, "unit": "%"}, {"measurement": "Glycan Species Peak 8- (1,6)G1F", "setting": "fucosyl transferase; [1]", "value": 26, "unit": "%"}, {"measurement": "Glycan Species Peak 9 (1,3)G1F", "setting": "fucosyl transferase; [1]", "value": 11, "unit": "%"}, {"measurement": "Glycan Species Peak 10 G2F", "setting": "fucosyl transferase; [1]", "value": 6.5, "unit": "%"}]}
{"compound": "O=C1N[C@@H]2[C@@H](O)[C@@H](O)[C@H](O)[C@@H](CO)N2C1=O", "note": "[kifunensine]", "values": [{"measurement": "ideal concentration for optimization of the mannose species", "setting": "α-mannosidase I", "value": "1 to 10", "unit": "ng/mL"}]}
